Data as given in patent publication US4117230A, “Hydantoin derivatives as therapeutic agents” (priority 1977, dated 1978).

Assays:
[1] = test system: sorbitol levels in the sciatic nerve and lens of diabetic subjects; experiment: lowering of sorbitol levels in sciatic nerve (peripheral nerves) and lens of diabetic subjects (summary statement); assay type: in vivo; conditions: qualitative statement
[2] = test system: galactitol levels in the lens of galactosemic subjects; experiment: lowering of galactitol levels in the lens of galactosemic subjects (summary statement); assay type: in vivo; conditions: qualitative statement
aldose reductase = target: T1, aldose reductase (Bos taurus, UniProt P16116); experiment: inhibition of aldose reductase enzyme activity (procedure of S. Hayman et al., modified by K. Sestanj et al.); assay type: biochemical, calf; conditions: for inhibition at 100 µM: 10^-4 M; for inhibition at 100 µM / inhibition at 10 µM / inhibition at 1 µM / inhibition at 0.1 µM: calf lens enzyme, read-out: Percent inhibition of aldose reductase enzyme activity; for inhibition at 10 µM: 10^-5 M; for inhibition at 1 µM: 10^-6 M; for inhibition at 0.1 µM: 10^-7 M; for aldose reductase inhibitory activity (in words): qualitative statement
T1 construct: partially purified aldose reductose enzyme obtained from calf lens; from tissue; host or cells: calf lens
Procedure: (§1) The activity of the compounds of the present invention, as agents for the control of chronic diabetic complications, is determined by their ability to successfully pass one or more of the following standard biological and/or pharmacological tests, viz., (1) measuring their ability to inhibit the enzyme activity of isolated aldose reductase; (2) measuring their ability to reduce or inhibit sorbitol accumulation in the sciatic nerve of acutely sterptozotocinized (i.e., diabetic) rats; (3) measuring their ability to reverse already-elevated sorbitol levels in the sciatic nerve and lens of chronic streptozotocin-induced diabetic rats; (4) measuring their ability to prevent or inhibit galactitol formation in the lens of acutely galactosemic rats, and (5) measuring their ability to delay cataract formation and reduce the severity of lens opacities in chronic galactosemic rats.
Hayman et al., as described in the Journal of Biological Chemistry, Vol. 240, p. […] In every case, the substrate employed ws partially purified aldose reductose enzyme obtained from calf lens.

[3] = test system: sorbitol accumulation in the sciatic nerve of streptozotocinized (i.e., diabetic) rats; experiment: inhibition of sorbitol accumulation in the sciatic nerve of acutely streptozotocinized (diabetic) rats; assay type: in vivo, rat; conditions: measured at 27 h, vs untreated
Procedure: as §1
The following spiro-hydantoin compounds of Preparation C and Examples I-V, VII-IX, XI-XVII, XIX-XXV, XXVII and XXX-XXXIII, respectively, were tested for their ability to reduce or inhibit sorbitol accumulation in the sciatic nerve of streptozotocinized (i.e., diabetic) rats by the procedure essentially described in U.S. Pat. No. 3,821,383. In the present study, the amount of sorbitol accumulation in the sciatic nerves was measured 27 hours after induction of diabetes. The compounds were administered orally at the dose levels indicated at 4, 8 nd 24 hours following the administration of streptozotocin. The results obtained in this manner are presented below in terms of percent inhibition (%) afforded by the test compound as compared to the case where no compound was administered (i.e., the untreated animal where sorbitol levels normally rise from approximately […]. tissue to as high as […]. tissue in the 27-hour test period): […]

[4] = 0.75 mg./kg. orally at 4, 8 and 24 h after streptozotocin
[5] = 1.5 mg./kg. orally at 4, 8 and 24 h after streptozotocin
[6] = 5.0 mg./kg. orally at 4, 8 and 24 h after streptozotocin
[7] = 10 mg./kg. orally at 4, 8 and 24 h after streptozotocin

SMILES | inhibition at 100 µM (aldose reductase) [%] | inhibition at 10 µM (aldose reductase) [%] | inhibition at 1 µM (aldose reductase) [%] | inhibition at 0.1 µM (aldose reductase) [%] | aldose reductase inhibitory activity (in words) (aldose reductase) | lowering of sorbitol levels in sciatic nerve (peripheral nerves) and lens (in words) [1] | lowering of galactitol levels in the lens (in words) [2] | Percent inhibition of sorbitol accumulation in the sciatic nerve [3, 4] [%] | Percent inhibition of sorbitol accumulation in the sciatic nerve [3, 5] [%] | Percent inhibition of sorbitol accumulation in the sciatic nerve [3, 6] [%] | Percent inhibition of sorbitol accumulation in the sciatic nerve [3, 7] [%]
O=C1NC(=O)C2(CCc3ccccc32)N1 (centres unmarked) [Ex. I, spiro-[imidazolidine-4,1'-indan]-2,5-dione] | 73 | 39 | 18 | -11 | highly potent | extremely effective | extremely effective |  | 29 | 52 | 67
O=C1NC(=O)C2(CCOc3cc(Cl)c(Cl)cc32)N1 (centres unmarked) [Ex. XXIII, 6,7-dichloro-spiro-[chroman-4,4'-imidazolidine]-2',5'-dione] | 59 | 96 | 91 | 84 | highly potent | extremely effective | extremely effective |  | 64 |  | 
O=C1NC(=O)C2(CCSc3cc(Cl)c(Cl)cc32)N1 (centres unmarked) [Ex. XI, 6',7'-dichloro-spiro-[imidazolidine-4,4'-thiochroman]-2,5-dione] | 67 | 84 | 76 | 69 | highly potent | extremely effective | extremely effective |  |  | 59 | 
O=C1NC(=O)C2(CS(=O)(=O)c3ccccc32)N1 (centres unmarked) [Ex. XXXIII, spiro-[imidazolidine-4,3'-thioindan]-2,5-dione-1,1'-dioxide] | 81 | 64 | 22 | 4 |  |  |  |  |  | 5 | 
COc1cc2c(cc1OC)C1(CC2)NC(=O)NC1=O (centres unmarked) [Ex. IV, 5',6'-dimethoxy-spiro-[imidazolidine-4,1'-indan]-2,5-dione] | 90 | 81 | 35 | 9 |  |  |  |  |  | 33 | 49

Further lines, with some results ahead:

inhibition at 100 µM (aldose reductase) [%] | inhibition at 10 µM (aldose reductase) [%] | inhibition at 1 µM (aldose reductase) [%] | inhibition at 0.1 µM (aldose reductase) [%] | aldose reductase inhibitory activity (in words) (aldose reductase) | SMILES | lowering of sorbitol levels in sciatic nerve (peripheral nerves) and lens (in words) [1] | lowering of galactitol levels in the lens (in words) [2] | Percent inhibition of sorbitol accumulation in the sciatic nerve [3, 4] [%] | Percent inhibition of sorbitol accumulation in the sciatic nerve [3, 5] [%] | Percent inhibition of sorbitol accumulation in the sciatic nerve [3, 6] [%] | Percent inhibition of sorbitol accumulation in the sciatic nerve [3, 7] [%]
85 | 90 | 78 | 81 | highly potent | O=C1NC(=O)C2(CCOc3c(Cl)cc(Cl)cc32)N1 (centres unmarked) [Ex. XXIV, 6,8-dichloro-spiro-[chroman-4,4'-imidazolidine]-2',5'-dione] | extremely effective | extremely effective | 82 |  |  | 
73 | 81 | 77 | 64 | highly potent | O=C1NC(=O)C2(CCOc3ccc(Cl)cc32)N1 (centres unmarked) [Ex. XXV, 6-chloro-spiro-[chroman-4,4'-imidazolidine]-2',5'-dione] | extremely effective | extremely effective | 64 | 84 |  | 
87 | 85 | 52 | 6 |  | O=C1NC(=O)C2(CCOc3c(Cl)cccc32)N1 (centres unmarked) [Ex. XXVII, 8-chloro-spiro-[chroman-4,4'-imidazolidine]-2',5'-dione] |  |  |  | 30 |  | 
